Experimental data published in patent EP0416248A2, “Use of vitamine B6 for reducing elevated serotonin levels” (priority 1989, dated 1991).
Where two headings read alike, the source gives them in different places. Each block holds one molecule with its values, some of them ahead of it.

Legend:
[1] = system: vitamin B6 levels in human plasma and cells; assay: Applicant's investigations of enprofylline and vitamin B6 levels
serotonin = type: in vivo, humans
Method: Studies on humans: The study was approved by the University Human Ethics Committee. Seven apparently healthy, young male volunteers aged 23 ± 2.4 ( ± SD) years gave informed consent to participate in the study. Each participant received theophylline (slow release) at a dosage of approximately 5 mg/kg body weight/day for one week. Thereafter, the theophylline dosage was increased to maintain plasma theophylline levels of approx. 10 mg/liter for 15 weeks. During the last week of the study (16th week) the participants were supplemented with 10 mg of vitamin B6 (B6) as herein described per day.
Clin. Chem. 35: 43-47. Serotonin concentrations were subsequently determined by HPLC according to the method of Tsuchiya et al.)

[2] = system: glutamate pyruvate transaminase (GPT) in red blood cells; type: in vivo, human
Method: The inventor carried out clinical tests in human volunteers to investigate the effect of theophylline on glutamate pyruvate transaminase (GPT) in red blood cells, which plays an important biochemical role. […] When theophylline was administered there took place a dramatic drop in both PLP due to the inactivation of the kinase, and after approximately 28 days, also of RBC GPT levels as newly formed RBC (produced in the bone marrow under conditions of reduced PLP availability) begin to appear in the circulation.
As predicted, the body did indeed try to compensate for this by forming progressively more kinase. […] Thus the increased levels of kinase were unable to reverse the theophylline induced PLP deficiency and the concommittant GPT deficiency.

[3] = system: B6 dependent intracellular pathways; assay: Very low doses of PN in humans; type: in vivo; details: 0,02 mg/kg in humans
PL-kinase = molecular target: T1, PL-kinase (Homo sapiens, UniProt O00764); assay: Enzyme kinetic studies of PL-kinase inhibition; type: biochemical
T1 sequence (O00764 1-312): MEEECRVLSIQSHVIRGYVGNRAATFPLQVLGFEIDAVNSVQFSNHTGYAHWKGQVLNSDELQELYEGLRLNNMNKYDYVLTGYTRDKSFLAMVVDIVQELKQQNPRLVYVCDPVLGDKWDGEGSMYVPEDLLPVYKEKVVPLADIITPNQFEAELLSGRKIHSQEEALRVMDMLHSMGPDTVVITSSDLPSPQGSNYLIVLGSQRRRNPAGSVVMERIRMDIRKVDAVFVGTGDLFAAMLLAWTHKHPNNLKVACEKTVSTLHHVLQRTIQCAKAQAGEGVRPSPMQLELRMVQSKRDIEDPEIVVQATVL

half-life (in vivo): 30 to 40 min
SMILES: Cc1ncc(CO)c(C=O)c1O [PL, pyridoxal]

SMILES: CCCn1c(=O)[nH]c(=O)c2[nH]cnc21 [enprofylline, 3-propylxanthine]
effect on vitamin B6 levels in human plasma and cells [1]: adverse effect

SMILES: Cc1ncc(CO)c(CO)c1O.Cl [vitamin B6]
urinary serotonin excretion (serotonin; one week of B6 supplementation (10 mg per day) during theophylline therapy): returned urinary serotonin excretion to pre-treatment levels
PLP deficiency induced by the xanthine bronchodilator ([2]; low dosage supplementation with Vitamin B6): almost immediately reversed

half-life (plasma): 12 min
SMILES: Cc1ncc(CO)c(CO)c1O [PN, pyridoxine]
extracellular PL and PLP levels [3]: without affecting extracellular PL and PLP levels materially
influence on B6 dependent intracellular pathways [3]: profound influence

SMILES: Cn1c(=O)c2[nH]cnc2n(C)c1=O [theophylline]
Urinary serotonin excretion, Basal (serotonin; 112 days of theophylline treatment, preceded by 1 week of vitamin B6 supplementation (10 mg/day), mean (SD)): 0.562 (0.127) umol/24 h
Urinary serotonin excretion after tryptophan loading (serotonin; human, in vivo): the observed changes were not statistcially significant
PLP ([2]; human, in vivo): dramatic drop
PLP content and GPT content ([2]; human, in vivo): remained depressed for as long as 100 days
type of PL-kinase inhibition (PL-kinase): non-competitive
